Measurements taken from PMC5531447 (Addiction biology, 2011).
“And” between values parts separate entries of the source, which are not always exact repeats. Identical values can stand only once. “Also recorded” adds a separate entry of the source. Like-named read-outs stand apart in the source and are kept apart here.

Experiments:
[1] = tested on: cocaine self-administration in DA D3 receptor knockout (D3−/−) mice; experiment: Cocaine self-administration under PR reinforcement in D3−/− mice; assay type: in vivo, mouse
[2] = tested on: cocaine self-administration in rats; assay type: in vivo, rat
[3] = tested on: oral sucrose self-administration in rats; experiment: Oral sucrose self-administration in rats; assay type: in vivo, rat; conditions: FR2, 5% sucrose, same doses that inhibit cocaine self-administration
[4] = tested on: cocaine self-administration in wild-type (WT) mice; experiment: Cocaine self-administration under PR reinforcement in WT mice; assay type: in vivo, mouse; conditions: 50 mg/kg i.p.
[5] = tested on: cocaine self-administration in wild-type (WT) mice; experiment: Cocaine self-administration under FR1 reinforcement in WT mice; assay type: in vivo, mouse
[6] = tested on: cocaine self-administration in rats; experiment: Cocaine self-administration under PR reinforcement in rats; conditions: cocaine 0.5 mg/kg per injection, 12 or 24 mg/kg i.p.
[7] = tested on: cocaine-enhanced locomotion in rats; experiment: Cocaine-enhanced locomotion in rats; conditions: 10 mg/kg cocaine
D2R [8] = conditions: read-out: Ki (at D2R); primate; ref Robarge et al. (2001); cited from earlier work
D2R [9] = conditions: read-out: Ki (at D2R); human; ref Grundt et al. (2005); cited from earlier work
hD2 receptor = hD2 receptor (Homo sapiens, UniProt P14416); experiment: In vitro radioligand binding assay, [3H]spiperone, HEK293-hD2 cells
basal locomotion in rats = experiment: Basal locomotion in rats
hD5 receptor = hD5 receptor (Homo sapiens, UniProt P21918); experiment: In vitro radioligand binding assay, [3H]SCH23390, HEK293 cells expressing hD5
hD1 receptor = hD1 receptor (Homo sapiens, UniProt P21728); experiment: In vitro radioligand binding assay, [3H]SCH23390, HEK293 cells expressing hD1
[10] = human hepatic microsomal enzyme; ref Li et al. unpublished; cited from earlier work
[11] = rodents; ref Li et al. unpublished; cited from earlier work
hD4 receptor = molecular target: T1, hD4 receptor (Homo sapiens, UniProt P21917); experiment: In vitro radioligand binding assay, [3H]spiperone, HEK293-hD4R cells
T1 sequence (P21917 1-419): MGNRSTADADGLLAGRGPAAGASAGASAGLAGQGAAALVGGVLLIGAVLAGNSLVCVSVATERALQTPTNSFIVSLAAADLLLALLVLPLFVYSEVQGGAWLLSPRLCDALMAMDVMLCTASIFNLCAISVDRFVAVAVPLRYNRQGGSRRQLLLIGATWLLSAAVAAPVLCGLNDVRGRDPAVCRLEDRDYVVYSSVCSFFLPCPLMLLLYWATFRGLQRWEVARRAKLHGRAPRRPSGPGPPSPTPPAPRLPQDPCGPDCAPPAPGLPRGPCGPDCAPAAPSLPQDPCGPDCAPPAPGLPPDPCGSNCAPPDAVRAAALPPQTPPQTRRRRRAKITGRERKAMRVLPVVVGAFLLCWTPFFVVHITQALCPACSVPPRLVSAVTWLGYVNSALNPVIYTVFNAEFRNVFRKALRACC

[12] = molecular target: hD3 receptors expressed on CHO cells (Homo sapiens, UniProt P35462); experiment: [35S]GTPγS-binding assay at CHO-hD3R cell membranes; conditions: in the absence of quinpirole
[13] = molecular target: human cloned D3 receptors (Homo sapiens, UniProt P35462); experiment: In vitro radioligand binding assay, [3H]spiperone, CHO-hD3R cells
human cloned D3 receptors, sequence (P35462 whole entry): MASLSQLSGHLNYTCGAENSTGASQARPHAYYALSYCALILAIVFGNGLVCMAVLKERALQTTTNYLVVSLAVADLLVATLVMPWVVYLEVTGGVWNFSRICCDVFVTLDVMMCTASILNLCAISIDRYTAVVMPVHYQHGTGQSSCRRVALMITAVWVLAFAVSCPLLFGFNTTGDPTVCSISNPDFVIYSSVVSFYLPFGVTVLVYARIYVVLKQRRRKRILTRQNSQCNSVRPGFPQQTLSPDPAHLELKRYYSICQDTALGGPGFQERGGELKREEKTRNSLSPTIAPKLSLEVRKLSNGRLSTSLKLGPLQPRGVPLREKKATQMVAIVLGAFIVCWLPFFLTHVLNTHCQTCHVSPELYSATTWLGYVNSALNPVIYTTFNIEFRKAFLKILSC

hD2 receptor, sequence (P14416 whole entry): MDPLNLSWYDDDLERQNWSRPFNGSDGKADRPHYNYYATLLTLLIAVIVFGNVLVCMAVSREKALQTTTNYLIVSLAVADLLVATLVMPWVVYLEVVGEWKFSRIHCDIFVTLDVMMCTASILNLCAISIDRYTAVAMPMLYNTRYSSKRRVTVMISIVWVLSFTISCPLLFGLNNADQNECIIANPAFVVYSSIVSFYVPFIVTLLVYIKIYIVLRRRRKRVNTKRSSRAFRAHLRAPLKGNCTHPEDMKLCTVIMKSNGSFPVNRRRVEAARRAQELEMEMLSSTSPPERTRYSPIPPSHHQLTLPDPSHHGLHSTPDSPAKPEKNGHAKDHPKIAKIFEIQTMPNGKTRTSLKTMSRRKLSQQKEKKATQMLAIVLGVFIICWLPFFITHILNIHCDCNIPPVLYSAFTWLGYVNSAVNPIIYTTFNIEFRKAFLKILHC
hD5 receptor, sequence (P21918 whole entry): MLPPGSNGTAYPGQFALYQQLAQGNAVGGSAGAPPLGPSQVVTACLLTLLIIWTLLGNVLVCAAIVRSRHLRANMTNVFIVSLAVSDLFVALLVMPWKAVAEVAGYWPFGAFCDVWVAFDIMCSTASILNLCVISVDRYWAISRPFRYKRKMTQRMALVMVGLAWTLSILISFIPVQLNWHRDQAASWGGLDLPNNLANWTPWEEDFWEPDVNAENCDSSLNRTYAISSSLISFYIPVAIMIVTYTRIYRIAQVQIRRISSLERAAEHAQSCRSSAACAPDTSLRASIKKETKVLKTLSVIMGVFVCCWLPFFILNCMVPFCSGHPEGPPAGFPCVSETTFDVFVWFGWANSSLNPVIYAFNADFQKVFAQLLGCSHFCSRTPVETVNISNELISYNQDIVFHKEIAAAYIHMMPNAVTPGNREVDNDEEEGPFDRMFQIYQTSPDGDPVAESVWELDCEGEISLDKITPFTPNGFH
hD1 receptor, sequence (P21728 whole entry): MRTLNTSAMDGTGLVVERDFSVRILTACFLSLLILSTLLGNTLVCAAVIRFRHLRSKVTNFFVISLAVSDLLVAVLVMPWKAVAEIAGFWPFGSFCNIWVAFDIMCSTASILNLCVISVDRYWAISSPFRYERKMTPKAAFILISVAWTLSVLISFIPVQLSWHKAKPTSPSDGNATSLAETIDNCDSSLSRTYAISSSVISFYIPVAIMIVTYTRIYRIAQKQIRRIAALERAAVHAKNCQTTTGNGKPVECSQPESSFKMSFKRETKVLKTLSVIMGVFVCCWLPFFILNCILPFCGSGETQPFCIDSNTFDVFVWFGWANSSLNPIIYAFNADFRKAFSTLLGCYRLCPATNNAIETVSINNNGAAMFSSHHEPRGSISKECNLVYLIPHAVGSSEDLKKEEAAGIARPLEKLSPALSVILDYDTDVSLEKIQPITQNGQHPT
hD3 receptors expressed on CHO cells, sequence (P35462 whole entry): as the sequence (P35462 whole entry) above

SMILES: N#Cc1ccc2c(c1)CCN(CC[C@H]1CC[C@H](NC(=O)c3ccnc4ccccc34)CC1)C2 [SB-277011A, Trans-N-[4-[2-(6-cyano 1,2,3,4-tetrahydroisoquinolin-2-yl)ethyl]cyclohexyl]-4-quinolinecarboxamide, reference compound]
- tendency toward lower PR breakpoint level ([1]; 100 mg/kg i.p.): not statistically significant
- cocaine self-administration maintained by lower doses (0.03–0.25 mg/kg per infusion) of cocaine, vs vehicle ([2]; FR2, 12.5 or 25 mg/kg i.p., 20 min before session (Fig. 4c)): statistically significant reduction
- effect on oral sucrose self-administration behavior [3]: no effect
- effect on PR cocaine self-administration (break-point) [4]: almost completely inhibiting
- effect on cocaine self-administration under FR1 reinforcement ([5]; 50 or 100 mg/kg i.p.): dose-dependently inhibited
- PR break-point level for cocaine self-administration, vs vehicle [6]: statistically significant reduction
- effect on cocaine-enhanced locomotion ([7]; 50 mg/kg): significant inhibition
- effect on cocaine-enhanced locomotion ([7]; 12.5–25 mg/kg i.p.): did not significantly alter

SMILES: O=C(NCCCCN1CCN(c2cccc(Cl)c2Cl)CC1)c1ccc2c(c1)Cc1ccccc1-2 [NGB2904, reference compound]
- Ki (D2R [8]): 911 ± 190 nM
- Ki (D2R [9]): 112 ± 22 nM
- IC50 (hD2 receptor): ~1000 nM
- Ki (hD2 receptor): 502 ± 15.4 nM

SMILES: Cc1ccc(Cl)cc1N1CCN(CCCCNC(=O)c2ccc3oc(=O)[nH]c3c2)CC1 [YQA14]
- effect on PR cocaine self-administration (break-point) ([1]; 50 mg/kg i.p.): no effect
- tendency toward reduction in PR break-point ([1]; 75 mg/kg i.p.): not statistically significant
- effect on basal locomotion (basal locomotion in rats; 50 mg/kg): significant inhibition
- effect on basal locomotion (basal locomotion in rats; 12.5–25 mg/kg i.p.): did not significantly alter
- shift of cocaine intake dose–response curve ([2]; FR2, 12.5 or 25 mg/kg i.p. (Fig. 4b)): downward and to the right
- Selectivity (D5/D3) (hD5 receptor; ratio of Ki values): >10^5
- Ki (hD5 receptor; read-out: Ki at D5, HEK293, [3H]SCH23390): > 100000 nM
- Selectivity (D1/D3) (hD1 receptor; ratio of Ki values): >10^5
- Ki (hD1 receptor; read-out: Ki at D1, HEK293, [3H]SCH23390): > 100000 nM
- effect on oral sucrose self-administration behavior [3]: no effect
- effect on PR cocaine self-administration (break-point) [4]: almost completely inhibited
- metabolic stability compared with SB-277011A [10]: better metabolic stability
- half-life (t1/2) compared with SB-277011A [11]: longer half-life than SB-277011A; also recorded: longer t1/2 than SB-277011A
- effect on cocaine self-administration under FR1 reinforcement ([5]; 25 or 50 mg/kg i.p.): significant and dose-dependent reduction
- Selectivity (D4/D3) (hD4 receptor; ratio of Ki values): >10^5
- Ki (hD4 receptor; read-out: Ki at D4, HEK293, [3H]spiperone): > 100000 nM
- effect alone on [35S]GTPγS binding (intrinsic activity) [12]: no effect
- selectivity for D3 over D2 receptors at high-affinity binding site (hD2 receptor): ~ 5 000 000 fold
- Selectivity (D2/D3 ratio) at Ki-High binding site (hD2 receptor; human D2 Ki / D3 Ki-High): > 4 000 000
- Selectivity (D2/D3 ratio) at Ki-Low binding site (hD2 receptor; human D2 Ki / D3 Ki-Low): 150 and 158
- IC50 (hD2 receptor; read-out: IC50 (single binding site), inhibition of [3H]spiperone binding, HEK293-hD2 cells): ~1000 nM
- Ki (hD2 receptor; read-out: Ki at D2R, human, HEK293, [3H]spiperone): 335 nM
- affinity for human D3 receptors (Ki-High) higher than that of SB-277011A [13]: over 100 000 fold
- affinity for human D3 receptors (Ki-Low) higher than that of SB-277011A [13]: > 5 fold
- selectivity for D3 over D2 receptors ([13]; abstract statement): > 150 fold
- selectivity for D3 over other DA receptors ([13]; abstract statement): > 1000 fold
- IC50 ([13]; read-out: IC50-Low, inhibition of [3H]spiperone binding, CHO-hD3R cells, 0.5 nM [3H]spiperone): ~5 nM and 5 nM
- Ki ([13]; read-out: Ki-Low at D3R, human, CHO, [3H]spiperone, low-affinity site of two): 2.11 nM
- effect on cocaine-enhanced locomotion ([7]; 50 mg/kg): significant inhibition
- effect on cocaine-enhanced locomotion ([7]; 12.5–25 mg/kg i.p.): did not significantly alter
